{"source": "patent US11518805B2", "about": "“Binding inhibitor between TCTP dimer type IgE-dependent histamine releasing factor and receptor thereof, and use thereof” (EWHA UNIVERSITY—INDUSTRY COLLABORATION FOUNDATION, priority 2014, dated 2022)", "key": {"Del-N11dTCTP": {"biological_target": "T1, Del-N11dTCTP (Rattus norvegicus, UniProt P63029)", "T1 construct": "made in house", "T1 sequence (P63029 11-172 limits assumed)": "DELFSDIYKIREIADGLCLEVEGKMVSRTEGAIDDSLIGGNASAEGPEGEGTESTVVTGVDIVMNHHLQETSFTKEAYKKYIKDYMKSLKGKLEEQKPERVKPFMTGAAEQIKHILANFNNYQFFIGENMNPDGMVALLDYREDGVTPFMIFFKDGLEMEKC", "experiment": "Inhibition of Del-N11dTCTP-induced IL-8 secretion by domain peptides in BEAS-2B cells", "assay_type": "cell-based", "conditions": "Del-N11dTCTP 70 nM, peptide molar ratios 0~1, 24 hours, ELISA", "procedure": "To investigate inhibitory effect of FL domain, Helix 2 domain, and Helix 3 domain on Del-N11dTCTP, the inventors synthesized FL domain (Ac-[…]-NH2) (SEQ. ID. NO: 1), Helix 2 domain (Ac-[…]-NH2) (SEQ. ID. NO: 11), and Helix 3 domain (Ac-[…]-NH2) (SEQ. ID. NO: 22) by using the synthetic peptides prepared with NH2-terminal acetylation and COOH-terminal amidation, followed by purification.\nParticularly, BEAS-2B cells were treated with Del-N11dTCTP (70 nM) by the same manner as described in Experimental Example 1. At this time, the synthesized FL domain, Helix 2 domain, and Helix 3 domain were treated to the cells at different molar ratios (0˜1), followed by reaction for 30 minutes. Then, Del-N11dTCTP was added thereto. 24 hours later, the supernatant was obtained and the released IL-8 was quantified by ELISA."}, "[1]": {"system": "asthma and rhinitis animal models induced with ovalbumin", "experiment": "FL and H2 domain peptides in ovalbumin-induced asthma and rhinitis animal models", "assay_type": "in vivo, BALB/c female mice", "conditions": "for inflammatory cells in bronchoalveolar lavage fluid (total cell number, leukocyte number) / level of IL-5 in bronchoalveolar lavage fluid: 20 mg/kg intraperitoneal, vs positive control (PBS)", "procedure": "Particularly, 5 week old specific pathogen free BALB/c female mice (weight: approximately 20 g) were purchased from Orientbio Inc. (Seoul, Korea), followed by stabilization in an animal laboratory for 1 week. The mice were administered with 200 ? of PBS containing 1.3 mg of aluminum hydroxide (Sigma A8222) and 100 μg of ovalbumin (Sigma A5503) via intraperitoneal injection twice at a week interval, followed by sensitization. Then, 20 ? of PBS containing 200 μg of ovalbumin dissolved therein was administered via intranasal instillation on day 14, day 16, and day 18 to induce immune response. PBS was administered for the positive control and FL and H2 domains and the antisera or antibodies thereof were administered via intraperitoneal injection 10 minutes before antigen administration. On day 15, day 17, and day 19, intraperitoneal administration was performed without antigen administration. On day 19, the animals were sacrificed 2 hours after the administration (FIG. 16). 50 μg of anti-C terminus IgG was administered via intranasal instillation or intraperitoneal injection 30 minutes before the antigen administration on day 14, day 16, and day 18. 24 hours after the last administration, the animals were sacrificed (FIG. 26). The asthma and rhinitis models constructed in Example 7 were treated with FL and H2 domain at the concentration of 20 mg/kg in order to investigate whether or not those two HRF receptor binding domains could suppress pathophysiological lesion of asthma and rhinitis. Particularly, after cardiac blood collection in the animal model constructed in Example 7, bronchoalveolar lavage was performed. The airway was opened and a 20-gauge intravascular tube catheter was inserted through the opened airway, through which 0.8 ml of PBS containing 2% FBS was slowly injected three times and then recovered. The recovery rate was at least 80% and the recovered washing solution was centrifuged at 4° C. for 15 minutes at 1,000×g. The obtained supernatant was used for the detection of cytokine such as IL-5 or for the detection of TCTP protein. In the meantime, the precipitate was resuspended in 100 ? of PBS containing 2% FBS. The number of the inflammatory cells infiltrated in the washing solution was counted by using HEMAVET 950FS (Drew Scientific). Particularly, upon completion of the experiment in Example 7, the mixture of zoletil (250 mg/kg) and rompun (50 mg/kg) was administered to the mouse via intraperitoneal injection to sacrifice the animal. 0.7˜0.8 mL of blood was collected from the heart and placed in a heparinized tube. The blood sample stood at room temperature for 30 minutes˜1 hour, followed by centrifugation at 1,000×g for 15 minutes to obtain plasma. The level of ovalbumin-specific IgE in the plasma was measured by ELISA. 100 μg of ovalbumin was dissolved in 0.05 M carbonate buffer (pH 9.6), which was distributed in a 96-well ELISA plate, followed by coating at 4° C. for overnight. Non-specific reaction was blocked by reacting the plate with TBS containing 1% BSA at room temperature for 30 minutes. The plasma sample was diluted (1:100), followed by reaction at room temperature for 1 hour, which was then washed with TBS containing 0.1% Tween-20. The […] anti-mouse IgE (SouthernBiotech) was diluted (1:8000), followed by reaction at room temperature for 1 hour. Then, the mixture was washed. TMB was treated thereto at room temperature. 10 minutes later, the reaction was terminated by adding 0.2 M H2SO4. Then, OD450 was measured with an ELISA reader. Particularly, bronchoalveolar lavage fluid was collected from the asthma and rhinitis animal models constructed in Example 7. The chest was dissected and the lung was extracted, which was washed with 4° C. PBS. The lung was cut to the appropriate size. Some of the lung pieces were fixed in PBS containing 4% paraformaldehyde (PFA) at room temperature via o/n fixation. […]"}, "[2]": {"system": "asthma and rhinitis animal models induced with ovalbumin", "experiment": "FL and H2 domain peptides in ovalbumin-induced asthma and rhinitis animal models", "assay_type": "in vivo, BALB/c female mice"}}, "note": "Entries after “also recorded” stand apart in the source; their conditions may differ."}
{"substance": "Ac-SRTEGAIDDSLIGGNASAEGPEGEGTESTVVT-NH2 [FL domain, ID; NO: 1]", "values": [{"measurement": "inhibition of IL-8 secretion induced by Del-N11dTCTP", "setting": "Del-N11dTCTP", "value": "inhibited IL-8 secretion better than Helix 3 domain; also recorded: inhibited more strongly"}, {"measurement": "inflammatory cells in bronchoalveolar lavage fluid (total cell number, leukocyte number)", "setting": "[1]", "value": "significantly lower"}, {"measurement": "level of IL-5 in bronchoalveolar lavage fluid", "setting": "[1]", "value": "reduced"}, {"measurement": "level of ovalbumin-specific IgE in plasma", "setting": "[1]; 20 mg/kg, ELISA, vs positive control", "value": "reduced"}, {"measurement": "number of total cells and level of lymphocytes in bronchoalveolar lavage fluid", "setting": "[1]; 20 mg/kg, p<0.01", "value": "significantly reduced"}, {"measurement": "level of TCTP dimer (approximately 45 kDa) in bronchoalveolar lavage fluid, immunoblotting", "setting": "[1]; vs positive control", "value": "reduced"}, {"measurement": "phospho-IκBα in lung tissue, immunoblotting", "setting": "[1]; vs positive control", "value": "decreased"}, {"measurement": "IL-5 secretion in bronchoalveolar lavage fluid", "setting": "[2]; 1 mg/kg", "value": "could inhibit IL-5 secretion"}, {"measurement": "inflammatory cells infiltrated in bronchoalveolar lavage fluid, dose dependence", "setting": "[2]; 1 mg/kg and 20 mg/kg", "value": "reduced FL domain dose-dependently"}, {"measurement": "level of ovalbumin-specific IgE in plasma, dose dependence", "setting": "[2]; various concentrations (1 and 20 mg/kg)", "value": "reduced by the treatment of FL domain dose-dependently"}]}
{"substance": "Ac-TKEAYKKYIKDYMKSLKGKLEEQKP-NH2 [Helix 2 domain, ID; NO: 11]", "values": [{"measurement": "inhibition of IL-8 secretion induced by Del-N11dTCTP", "setting": "Del-N11dTCTP", "value": "inhibited IL-8 secretion better than Helix 3 domain; also recorded: inhibited more strongly"}, {"measurement": "inflammatory cells in bronchoalveolar lavage fluid (total cell number, leukocyte number)", "setting": "[1]", "value": "decreased"}, {"measurement": "level of IL-5 in bronchoalveolar lavage fluid", "setting": "[1]", "value": "reduced"}]}
